The values that follow are results of earlier work, collected in US20200215024A1, “CANNABINOID FORMULATIONS FOR TREATING ALCOHOL HANGOVER” (Replennabis LLC, priority 2019, published 2020).

Structures are written as SMILES.

The conditions of this series: in vivo.

Take `CCCCCc1cc(O)c2c(c1)OC(C)(C)[C@@H]1CCC(C)=C[C@@H]21` [THC, tetrahydrocannabinol]: the oral bioavailability entry is recorded as “less than 8%”.
